Test results reported in the pKa sets of Baltruschat and Czodrowski (2020).

Conditions: acidic group

| SMILES | pKa |
| --- | --- |
| O=C([O-])[C@H](NCC[NH2+][C@@H](C(=O)[O-])c1ccccc1O)c1ccccc1O | 8.79 |

Same assay, conditions: basic group

| SMILES | pKa |
| --- | --- |
| CN(O)Cc1ccccc1 | 4.6 |
| CCN(CC)c1ccc(C(O)(c2ccccc2)c2ccc(N(CC)CC)cc2)cc1 | 7.9 |
| CC(C)NCC(O)c1cccc(N)c1 (stereo not drawn) | 9.6 |
| CCc1ccnc2c1ccc1cccnc12 | 5.44 |
| NC(Cc1ccncc1)C(=O)[O-] (stereo not drawn) | 9.22 |
| CCSC(=O)c1ccc(C)cc1 | -4.2 |
| C(=C\C=N\c1ccccc1)/C=C/Nc1ccccc1 | 8.52 |
| O/N=C/c1ccncc1 | 4.58 |
| COc1ccncc1 | 6.65 |
| CN(C)CCC(C#N)(c1ccccc1)c1ccccc1 | 8.31 |
| Nc1ccc(-c2ccc(/[NH+]=C/c3ccc(O)cc3)cc2)cc1 | 5.05 |
| CC(CC(c1ccccc1)c1ccccc1)N1CCOCC1 (stereo not drawn) | 6.9 |
| Nc1ccc(Cl)cc1Cl | 2.07 |
| C=C[C@]1(O)C[NH+]2CC[C@H]1C[C@@H]2[C@@H](O)c1ccnc2ccc(OC)cc12 | 4.12 |
| COc1cccc(C(=O)NC2CC3CCC(C2)N3Cc2ccccc2)c1OC (stereo not drawn) | 8.91 |
| CCN(C)C | 10.1 |
| c1ccc2c(c1)NCC[NH2+]2 | 2.11 |
| Clc1ccc(C2CN2)cc1 (stereo not drawn) | 6.18 |
| CCSC(=O)c1cccc(Br)c1 | -5.53 |
| CCCCCCCCCCCCCCN(CCO)CC(C)O (stereo not drawn) | 6.3 |
| CN(C1=NCCO1)c1ccccc1 | 8.51 |
| c1cnc2c(c1)CCCC2 | 6.6 |

| SMILES | pKa |
| --- | --- |
| CN1CCC=C(C(=O)[O-])C1 | 9.07 |
| C1CCN(C2CCNCC2)CC1 | 10.7 |
| [O-]c1cnnc2ccccc12 | 9.27 |
| Cc1nn(C)c(N(C)C(=O)CN)c1C(=O)c1ccccc1F | 7.52 |
| CCN(CC)CCSC(C)C | 9.32 |
| CN(C)c1ccc2nc3ccc(N)cc3nc2c1 | 6.6 |
| Cc1cc(=O)n(-c2ccccc2)n1C | 1.45 |
| CCC(=O)C(CC(C)N1CCCCC1)(c1ccccc1)c1ccccc1 (stereo not drawn) | 8.58 |
| COc1c(Cl)cc(Cl)c([O-])c1C(=O)NC1CCN(C)CC1 | 9.12 |
| Cc1cccc(/N=N/c2ccc(N)cc2)c1 | 2.88 |
| CN(C)CCCN(C)C | 9.8 |
| O=C([O-])c1c2ccccc2nc2ccccc12 | 5 |
| c1ccc(C2CCCN2)cc1 (stereo not drawn) | 9.6 |
| c1cc2c(nn1)CCCC2 | 4.3 |
| Brc1ccnc2c1ccc1cccnc12 | 4.03 |
| O=[N+]([O-])c1cc(-c2ccccc2)nnc1NCC[NH+]1CCOCC1 | 0.2 |
| OCCCCNCl | 1.49 |
| CCOc1ccc2c3c1O[C@H]1[C@@H](O)C=C[C@H]4[C@@H](C2)N(C)CC[C@@]341 | 8.03 |
| Oc1cccc2scnc12 | 1.25 |
| CCC(=O)C(c1ccccc1)(c1ccccc1)C(C)CN1CCOCC1 (stereo not drawn) | 7.12 |
| CC(C)C(N)C(=O)O (stereo not drawn) | 9.58 |
| Oc1ccc2nnccc2c1 | 3.65 |

| SMILES | pKa |
| --- | --- |
| Cc1nc(-c2ccccc2SCc2ccccc2)[nH]c1C | 7 |
| CC[NH+](CC)CCCCCCNc1c2ccc(Cl)cc2nc2ccc(OC)cc12 | 8.12 |
| CCCCCC(C)NC (stereo not drawn) | 11 |
| COC(=O)C([NH3+])Cc1c[nH]cn1 (stereo not drawn) | 5.41 |
| NC(N)=O | 0.4 |
| COc1ccc2nc3c(c(N4CCOCC4)c2c1)CCC3 | 7.14 |
| CNC(C)=S | -1.9 |
| Cc1ccc(C(=O)O)s1 | -0.57 |
| NCCCC#CC#CCCC(=O)[O-] | 9.94 |
| OC[C@@H]1O[C@H](n2cnc3c2ncn2ccnc32)[C@@H](O)[C@H]1O | 4.1 |
| Cc1cnc2c(O)cccc2c1 | 4.93 |
| c1c(CN2CCNCC[NH2+]CC2)n[nH]c1CN1CCNCC[NH2+]CC1 | 6.8 |
| C1CNC[NH2+]C1 | 4.71 |
| CN(C)CCCC(=O)Oc1cccc([N+](=O)[O-])c1 | 9.82 |
| Cc1nc(CO)[nH]c1C | 7.88 |
| CSc1nccc(C)n1 | 1.95 |
| NCCCCO | 10.3 |
| O=[N+]([O-])c1ccc2[nH]c(C(F)(F)F)nc2c1 | 0.18 |
| N#Cc1ccccc1N | 0.95 |
| Cc1nc(NCc2ccco2)c2cn[nH]c2n1 | 4.65 |
| NCC/C=C/C(=O)[O-] | 9.95 |
| CN1CC[C@]23c4c5ccc(O)c4O[C@H]2[C@@H](O)CC[C@H]3[C@H]1C5 | 8.94 |

| SMILES | pKa |
| --- | --- |
| Cc1cc(C(c2ccc(N)cc2)c2ccc([NH3+])cc2)ccc1[NH3+] | 2.6 |
| O=[N+]([O-])c1cccc2nccc(NCCCO)c12 | 7.06 |
| NCc1cc(Cl)ccc1[N+](=O)[O-] | 8.19 |
| CN(C)CCN(C)CC[NH+](C)C | 8.63 |
| N#Cc1ccncc1 | 1.91 |
| Cc1ccc2c(c1)ncn2[C@H]1OC[C@H](O)[C@@H](O)[C@@H]1O | 4.17 |
| Cc1cc([N+](=O)[O-])ccc1NN=C(C#N)C#N | -0.74 |
| COC(=O)C(N)CCONC(N)=O (stereo not drawn) | 6.95 |
| Cc1cccc(C)c1N(C)C | 5.85 |
| CNCCCCc1ccccc1 | 10.8 |
| C[NH+](C)c1ccc(/C=C/c2ccncc2)cc1 | 3.42 |
| CNc1ncnc2nc[nH]c12 | 4.31 |
| CCCCCCCCCCNc1ccccc1 | 4.56 |
| c1ccc2c(c1)ccc1nc[nH]c12 | 5.28 |
| N#CCCN | 7.75 |
| COC(=O)c1cccnc1 | 3.23 |
| NCCCCCC[NH3+] | 10.2 |
| COc1ncc2[nH]cnc2n1 | 2.44 |
| Clc1cccc(Nc2ccccc2)c1 | 2.34 |
| O=C(O)c1ccc(O)c2ncccc12 | 4 |
| O=C([O-])[C@H](NCC[NH2+][C@@H](C(=O)[O-])c1ccccc1O)c1ccccc1O | 6.33 |
